Earlier results in patent US20190314449A1, “CYCLIC DIPEPTIDES AND WOUND HEALING” (THE BOARD OF REGENTS OF THE UNIVERSITY OF TEXAS SYSTEM, priority 2016, published 2019).

Legend:
[1] = human, acute oral, 24 mg/dose, cited from earlier work
heme oxygenase 1 = conditions: neuronal cultures; cited from earlier work

O=C1NC(Cc2c[nH]cn2)C(=O)N2CCCC12 (centres unmarked) [Cyclo-His-Pro]
time at which plasma CHP levels peak ([1]; plasma): 4 h | time at which plasma CHP levels return to normal ([1]; plasma): ≤ 24 h | absorption from the gastrointestinal tract [1]: absorbed from the gastrointestinal tract | side effects based on physical and blood chemistry examinations [1]: No side effects | heme oxygenase 1 expression via activation of Nrf-2 ARE signaling (heme oxygenase 1): up-regulate heme oxygenase 1
